The assay addresses Choline kinase alpha (Homo sapiens, UniProt P35790). In words: Inhibition of human choline kinase alpha1 using [methyl-14C]choline as substrate assessed as reduction in rate of incorporation of 14C from [methyl-14C]choline into phosphocholine preincubated for 5 mins followed by substrate addition measured after 10 mins by scintillation counting.

One may read the IC50 as the concentration that inhibits the measured activity by half.

Chain of Choline kinase alpha (P35790 whole entry): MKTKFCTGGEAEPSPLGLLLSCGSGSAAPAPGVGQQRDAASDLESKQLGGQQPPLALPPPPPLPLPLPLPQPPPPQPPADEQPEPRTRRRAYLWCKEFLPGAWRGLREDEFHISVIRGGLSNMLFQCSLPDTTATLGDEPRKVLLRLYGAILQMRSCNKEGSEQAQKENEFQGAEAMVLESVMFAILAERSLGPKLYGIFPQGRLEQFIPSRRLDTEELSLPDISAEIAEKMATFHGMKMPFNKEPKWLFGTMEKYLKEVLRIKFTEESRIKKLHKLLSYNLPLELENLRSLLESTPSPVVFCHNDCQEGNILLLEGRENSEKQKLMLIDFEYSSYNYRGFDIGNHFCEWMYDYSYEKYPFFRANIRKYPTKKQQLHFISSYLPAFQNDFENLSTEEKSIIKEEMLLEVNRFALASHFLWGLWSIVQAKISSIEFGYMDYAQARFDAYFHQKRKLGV

Take `CN(c1ccccc1)c1cc[n+](Cc2ccc(OCCOc3ccc(C[n+]4ccc(N(C)c5ccccc5)c5ccccc54)cc3)cc2)c2ccccc12`: the IC50 is 6.85 µM.
